# Experimental data reported in publication PMC12704303, “Production of RPSL12-TetR fusion and development of two multiplex methods for simultaneous detection of tetracyclines and aminoglycosides in pork” (Food Chemistry: X, 2025).
# System: T1, RPSL12-TetR
# T1 construct: gene rpsL; single-chain fusion RPSL12 (372 bp) - linker (45 bp) - TetR (636 bp), total 1053 bp, in pET-32a(+), His-tag, expressed in E. coli host, Ni-NTA from soluble supernatant, about 41 kDa
# Test: microplate direct competition chemiluminescence, coated fusion protein, MC-HRP tracer
# Format: binding, Escherichia coli
# Conditions: competition with minocycline-HRP conjugate (TetR part); blank pork extract; 37 °C, 30 min
# Source text: microplate direct competition chemiluminescence, coated fusion protein, MC-HRP tracer on RPSL12-TetR
row,SMILES,IC50 [ng/mL]
1,CN(C)c1cc(NC(=O)CNC(C)(C)C)c(O)c2c1C[C@H]1C[C@H]3[C@H](N(C)C)C(=O)C(C(N)=O)=C(O)[C@@]3(O)C(=O)C1=C2O [TIC],0.0414
2,CN(C)[C@@H]1C(=O)C(C(N)=O)=C(O)[C@@]2(O)C(=O)C3=C(O)c4c(O)ccc(Cl)c4[C@@H](O)[C@H]3C[C@@H]12 [DMC],0.0287
3,CN(C)[C@@H]1C(=O)C(C(N)=O)=C(O)[C@@]2(O)C(=O)C3=C(O)c4c(O)cccc4C[C@H]3C[C@@H]12 [SC],0.0378
4,CN(C)[C@@H]1C(=O)C(C(N)=O)=C(O)[C@@]2(O)C(=O)C3=C(O)c4c(O)cccc4[C@@](C)(O)[C@H]3C[C@@H]12 [TC],0.038
5,CN(C)[C@@H]1C(=O)C(C(N)=O)=C(O)[C@@]2(O)C(=O)C3=C(O)c4c(O)cccc4[C@@](C)(O)[C@H]3[C@H](O)[C@@H]12 [OTC],0.0402
6,CN(C)[C@@H]1C(O)=C(C(=O)NCNCCCC[C@H](N)C(=O)O)C(=O)[C@@]2(O)C(O)=C3C(=O)c4c(O)cccc4[C@@](C)(O)[C@H]3C[C@@H]12 [LMC],0.0427
7,CN(C)[C@@H]1C(=O)C(C(N)=O)=C(O)[C@@]2(O)C(=O)C3=C(O)c4c(O)ccc(Cl)c4[C@@](C)(O)[C@H]3C[C@@H]12 [CTC],0.0344
8,C[C@H]1c2cccc(O)c2C(=O)C2=C(O)[C@]3(O)C(=O)C(C(N)=O)=C(O)[C@@H](N(C)C)[C@@H]3[C@@H](O)[C@@H]21 [DC],0.0395
9,C=C1c2cccc(O)c2C(O)=C2C(=O)[C@]3(O)C(O)=C(C(N)=O)C(=O)[C@@H](N(C)C)[C@@H]3[C@@H](O)[C@H]12 [MTC],0.0418
10,CN(C)c1ccc(O)c2c1C[C@H]1C[C@H]3[C@H](N(C)C)C(O)=C(C(N)=O)C(=O)[C@@]3(O)C(O)=C1C2=O [MC],0.0357

# System: T1, RPSL12-TetR
# Test: microplate direct competition chemiluminescence, coated fusion protein, STR-ALP tracer
# Format: binding, Escherichia coli
# Conditions: competition with streptomycin-ALP conjugate (RPSL12 part); blank pork extract; 37 °C, 30 min
# Source text: microplate direct competition chemiluminescence, coated fusion protein, STR-ALP tracer on RPSL12-TetR
row,SMILES,IC50 [ng/mL]
1,CN[C@@H]1[C@H](O[C@H]2[C@H](O[C@H]3[C@H](O)[C@@H](O)[C@H](N=C(N)N)[C@@H](O)[C@@H]3N=C(N)N)O[C@@H](C)[C@]2(O)C=O)O[C@@H](CO)[C@H](O)[C@H]1O [STR],5.1
2,CN[C@@H]1[C@H](O)[C@H](NC)[C@H]2O[C@@]3(O)C(=O)C[C@@H](C)O[C@H]3O[C@@H]2[C@H]1O [SPM],9.8
3,NC[C@@H]1O[C@H](O[C@H]2[C@@H](O)[C@H](O[C@@H]3[C@@H](O)[C@H](N)C[C@H](N)[C@H]3O[C@H]3O[C@H](CO)[C@@H](O)[C@H](O)[C@H]3N)O[C@@H]2CO)[C@H](N)[C@@H](O)[C@@H]1O [PMM],5.4
4,CNC[C@@H]1CC[C@@H](N)[C@@H](O[C@H]2[C@H](O)[C@@H](O[C@H]3OC[C@](C)(O)[C@H](NC)[C@H]3O)[C@H](N)C[C@@H]2N)O1 [MIM],3.8
5,CCN[C@@H]1C[C@H](N)[C@@H](O[C@H]2O[C@H](CN)CC[C@H]2N)[C@H](O)[C@H]1O[C@H]1OC[C@](C)(O)[C@H](NC)[C@H]1O [ETM],17
6,CCN[C@@H]1C[C@H](N)[C@@H](O[C@H]2OC(CN)=CC[C@H]2N)[C@H](O)[C@H]1O[C@H]1OC[C@](C)(O)[C@H](NC)[C@H]1O [NTM],16
7,NC[C@H]1O[C@H](O[C@H]2[C@H](O)[C@@H](O[C@H]3O[C@H](CO)[C@@H](O)[C@H](N)[C@H]3O)[C@H](N)C[C@@H]2N)[C@H](O)[C@@H](O)[C@@H]1O [KAN],6.4
8,NCC[C@H](O)C(=O)N[C@@H]1C[C@H](N)[C@@H](O[C@H]2O[C@H](CN)[C@@H](O)[C@H](O)[C@H]2O)[C@H](O)[C@H]1O[C@H]1O[C@H](CO)[C@@H](O)[C@H](N)[C@H]1O [AMK],5.1
9,CN[C@@H]1[C@@H](O)[C@@H](O[C@@H]2[C@@H](O)[C@H](O[C@H]3O[C@H](CN)[C@@H](O)[C@H](O)[C@H]3O)[C@@H](N)C[C@H]2NC(=O)[C@@H](O)CN)OC[C@]1(C)O [ISM],3.6
